In PMC9981504 (Journal of Biological Inorganic Chemistry, 2023):

Target: T1, soybean lipoxygenase (Glycine max, UniProt P08170)
T1 construct: gene LOX1.1
Assay: UV enzyme assay at […] nm, % inhibition at […]
Type: biochemical
Settings: read-out: LOX % 100 μM or IC50

T1 sequence (P08170 whole entry): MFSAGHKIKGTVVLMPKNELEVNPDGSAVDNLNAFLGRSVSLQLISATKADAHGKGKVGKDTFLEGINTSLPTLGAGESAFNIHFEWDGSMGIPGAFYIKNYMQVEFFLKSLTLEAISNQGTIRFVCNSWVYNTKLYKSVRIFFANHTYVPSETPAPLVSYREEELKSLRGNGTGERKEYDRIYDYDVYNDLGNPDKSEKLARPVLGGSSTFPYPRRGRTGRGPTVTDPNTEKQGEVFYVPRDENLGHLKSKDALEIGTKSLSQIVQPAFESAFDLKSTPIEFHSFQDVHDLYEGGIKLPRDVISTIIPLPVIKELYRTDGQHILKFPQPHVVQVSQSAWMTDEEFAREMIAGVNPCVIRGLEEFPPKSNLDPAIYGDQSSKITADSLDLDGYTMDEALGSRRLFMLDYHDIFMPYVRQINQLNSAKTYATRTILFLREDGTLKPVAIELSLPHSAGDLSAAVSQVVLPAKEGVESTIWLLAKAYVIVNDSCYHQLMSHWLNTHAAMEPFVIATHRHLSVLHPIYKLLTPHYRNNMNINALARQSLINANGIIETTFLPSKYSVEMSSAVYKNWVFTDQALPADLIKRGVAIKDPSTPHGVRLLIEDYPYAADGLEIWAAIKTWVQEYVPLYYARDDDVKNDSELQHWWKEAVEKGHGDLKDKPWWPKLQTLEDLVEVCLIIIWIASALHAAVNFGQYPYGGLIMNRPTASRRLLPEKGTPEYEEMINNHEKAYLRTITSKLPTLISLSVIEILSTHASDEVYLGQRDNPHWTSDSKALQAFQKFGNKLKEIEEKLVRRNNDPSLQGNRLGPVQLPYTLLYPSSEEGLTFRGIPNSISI

**Q.** `O=c1c(O)c(-c2ccc(O)cc2)oc2cc(O)ccc12` [resokaempferol, 3,7,4΄-trihydroxyflavone] was tested. Which inhibition at 100 µM did it give?
**A.** 90%
